Where two headings read alike, the source gives them in different places. Each block holds one substance with its values, some of them ahead of it.
What was measured:
PSA [1] = biological target: T1, PSA (Homo sapiens, UniProt P07288); conditions: ref [15], [47]; cited from earlier work
T1 construct: from tissue; host or cells: pooled human seminal fluid
Text: Previously, several selective and efficient substrates for PSA have been described. We used a fluorogenic peptide substrate identified by Denmeade and coworkers (1997). […] These differences may be explained by higher activity of the highly pu ...

PSA [2] = biological target: T1, PSA; assay: Enzyme kinetics of PSA with chromogenic peptide substrate S-2586; type: biochemical; conditions: S-2586 0.125–5 mM, 175 nM PSA, 0.1% BSA-TBS, room temperature, mean ± SD of two experiments
Experimental: (§1) The major form of active PSA (isoform PSA-B) was purified from pooled human seminal fluid by immunoaffinity chromatography followed by anion exchange chromatography. Semenogelins I and II were isolated from human seminal fluid as previously described, but instead of alkylating the proteins, the reducing agent 30 mM dithiothreitol (Sigma-Aldrich, St. Louis, MO) was included in all buffers during purification. Semenogelins were stored in the purification buffer containing 2 M urea and 5 mM EDTA at −70°C. Prior to cleavage by PSA, the buffer was exchanged to 50 mM Tris, pH 7.7, containing 0.15 M NaCl (TBS), with Amicon Ultra centrifugal filter units (MW cut-off 30 kDa) (Millipore, Cork, Ireland) at 4°C, and protein concentration was determined by measuring absorbance at 280 nm.
The proteolytic activity of PSA towards small peptide substrates was compared with two different substrates. […] The absorbance was measured at 405 nm immediately and at 5 min intervals for 30 min and fluorescence at 355/460 nm (excitation/emission) after 10 min, 20 min, 40 min, 1 h, 2 h and 4 h incubation at room temperature with a Victor 1420 Multilabel plate reader (PerkinElmer). […]
The maximum velocity of the reaction (Vmax) and the Michaelis constant (Km), i.e., substrate concentration at which the reaction rate is half of the maximum, were evaluated for PSA with both peptide substrates using Sigma Plot 11 with the Enzyme Kinetics Module 1.3 (SYSTAT Software, Inc., San Jose, CA) and the catalytic constant (kcat), i.e., the number of substrate molecules converted to product per time unit, was calculated from the equation kcat = Vmax/[PSA]. The absorbance was converted to molar concentration with the Lambert-Beer equation (A = εcl), using the molar absorptivity of pNA (εpNA = 8800 M^−1cm^−1). Fluorescence (counts per second, cps) was transformed to molar concentrations with SigmaPlot by means of a standard curve for 7-amido-4-methylcoumarin (AMC, Sigma-Aldrich).

HUVECs [3] = assay: HUVEC tube formation assay on Matrigel; type: cell-based, human; conditions: two separate experiments
Experimental: Human umbilical vein endothelial cells (HUVECs) were isolated from umbilical cord veins and grown in Endothelial Cell Growth Medium (Promocell, Heidelberg, Germany) with 2% Ultroser G BioSepra serum substitute (PALL BioSepra, Cergy, France) and growth factors EGF and bFGF. For tube formation, HUVECs were grown on top of Matrigel (BD Biosciences) as described previously, [29].
To study the effect of PSA-cleaved protein fragments, 0.08 µM nidogen-1 or 0.4 µM galectin-3 (10 µg/ml each) were first incubated with 1 µM PSA for 24 h at 37°C in PBS (Lonza). Then PSA activity was blocked by one-hour incubation at room temperature with 2 µM monoclonal antibody 5C7 [38]. The mixture containing nidogen-1 or galectin-3 fragments with PSA blocked by antibody or the same amount of intact nidogen-1 or galectin-3 were added together with the cells onto gelled Matrigel and the cells were allowed to form tubular networks for 20 h. Control wells contained either PBS or 1 µM PSA. After overnight incubation, cell culture medium was collected from PBS and PSA control wells for SDS-PAGE and Western blotting. Images of tubular networks (100×magnification) were taken using an Axiovert 200 inverted light microscope connected to an AxioCam digital camera and visualized by AxioVision software (all from Zeiss, Göttingen, Germany).

HUVECs [4] = system: HUVECs; parameters: method as in PMID 10702407, PMID 20713592; conditions: full-length galectin-3; ref [55], [72]; cited from earlier work
PSA [5] = biological target: T1, PSA; assay: Proteolytic cleavage of protein substrates by PSA (SDS-PAGE, silver staining); type: biochemical; conditions: 22 h incubation, 37°C, different plasminogen preparations and PSA batches
Experimental: as §1
Protein LoBind tubes (Eppendorf AG, Hamburg, Germany) were used in all protein degradation experiments.
PSA (0.2–1 µM) and 0.5–1 µM of each protein substrate were incubated at 37°C for 22 h in TBS buffer. During the incubation, samples of 15 µl were taken at different time points: 0 min, 10 min, 30 min, 2 h, 5 h and 22 h, and stored at −20°C before further analysis.
Immediately after each incubation, reducing 4× SDS-loading buffer (8% SDS), containing 1 M β-mercaptoethanol or 75 mM dithiothreitol, was added to each sample and proteins were denatured at 70°C for 10 min. The samples were immediately analyzed by SDS-PAGE or frozen at −20°C. Frozen samples were heated again at 70°C before loading on the gel. The cleavage of protein substrates by PSA, i.e., the disappearance of the full-length protein bands, was quantified from scanned images of silver stained gels by the measurement of relative optical densities of the protein bands using ImageJ [40]. […]
Proteins were visualized either by silver staining or Western blotting. […] After 30 min incubation in 0.2% AgNO3, the gel was rinsed briefly with water and proteins were detected with development solution, containing 700 µl/l of 37% formaldehyde, 0.001% sodium thiosulfate and 3% anhydrous Na2CO3. […]

PSA [6] = biological target: T1, PSA; conditions: reported to inhibit angiogenesis in vitro; ref [20]; cited from earlier work
Experimental: In the present study, we compared the proteolytic activity of PSA towards several protein substrates. As shown previously, semenogelins are cleaved very effectively by PSA. Malm and coworkers (2000) reported that more than half of semenogelin I is degraded after 15 min incubation with PSA [16], [63] and we observed this after 11 min incubation. Proteolysis of the other protein substrates, i.e., fibronectin, IGFBP-3, galectin-3 and nidogen-1, took much longer, reflecting the high substrate specificity of PSA for semenogelins. […] However, the detailed mechanism of the antiangiogenic activity of PSA remains unclear. Some of the proteolytically produced fragments of extracellular matrix (ECM) proteins act as endogenous angiogenesis inhibitors and may mediate the antiangiogenic effect of PSA. […] Although plasminogen ...

T1 sequence (P07288 25-261): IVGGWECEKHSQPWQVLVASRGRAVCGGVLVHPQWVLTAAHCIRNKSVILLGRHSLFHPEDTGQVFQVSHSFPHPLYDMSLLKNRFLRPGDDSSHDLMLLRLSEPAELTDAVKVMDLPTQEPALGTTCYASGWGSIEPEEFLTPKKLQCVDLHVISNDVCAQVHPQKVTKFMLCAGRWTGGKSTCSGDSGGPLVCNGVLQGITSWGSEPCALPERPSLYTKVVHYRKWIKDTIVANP

Substance: MeO-Suc-Arg-Pro-Tyr-pNA·HCl [Chromogenic substrate, chromogenic chymotrypsin substrate S-2586]
kcat/Km reported previously, compared to this study (PSA [1]): somewhat lower than that we observed | Km (PSA [2]; 405 nm, 5 min intervals for 30 min): 5.72 ± 1.53 mM | kcat/Km (PSA [2]): 133.4±24.6 s^−1M^−1 | kcat (PSA [2]; kcat = Vmax/[PSA]): 0.75 ± 0.07 s⁻¹

Substance: galectin-3: recombinant human galectin-3
effect on tube formation, PSA-generated fragments (HUVECs [3]; 10 µg/ml (0.08 µM nidogen-1, 0.4 µM galectin-3) precleaved by 1 µM PSA 24 h, PSA blocked by mAb 5C7, 20 h): did not have any effect on tube formation | effect on tube formation, full-length protein (HUVECs [3]; 10 µg/ml (0.08 µM nidogen-1, 0.4 µM galectin-3), 20 h, HUVECs on Matrigel): did not have any effect on tube formation | angiogenesis (HUVECs [4]): promote angiogenesis

cleavage of plasminogen by PSA (PSA [5]): PSA did not cleave plasminogen
Substance: plasminogen: plasminogen (Calbiochem and Hyphen BioMed) and lys-plasminogen from human plasma
cleavage of plasminogen by PSA (PSA [6]): cleave plasminogen to angiostatin-like fragments
